Results from ChEMBL document CHEMBL1268903, “Biologically active biotin derivatives of schweinfurthin F” (Bioorg Med Chem Lett, 2010).

Assays:
A549 = assay: Cytotoxicity against human A549 cells; type: functional, cell-based
SF-295 = assay: Cytotoxicity against human SF295 cells; type: functional, cell-based
[1] = Cytotoxicity against human NCI60 cells; type: functional

COCOc1cc(/C=C/c2cc3c(c(OC)c2)O[C@]2(C)CC[C@@H](O)C(C)(C)[C@H]2C3)cc(OC)c1C/C=C(\C)C/C=C/C(C)CNC(=O)CCCC[C@H]1SC[C@H]2NC(=O)N[C@H]21 (stereo partly drawn)
EC50 (A549): 5000 nM | EC50 (SF-295): 1100 nM

COc1cc(/C=C/c2cc(O)c(CC=C(C)C)c(O)c2)cc2c1O[C@]1(C)CC[C@@H](O)C(C)(C)[C@H]1C2 [SCHWEINFURTHIN F]
GI50 [1]: 1000 nM

COc1cc(/C=C/c2cc(O)c(C/C=C(\C)CCC=C(C)C)c(O)c2)cc2c1O[C@]1(C)CC[C@@H](O)C(C)(C)[C@H]1C2 [3-DEOXYSCHWEINFURTHIN B]
GI50 [1]: 1000 nM | EC50 (A549): 4900 nM

COCOc1cc(/C=C/c2cc3c(c(OC)c2)O[C@]2(C)CC[C@@H](O)C(C)(C)[C@H]2C3)cc(OC)c1C/C=C(\C)C/C=C/C(C)COC(=O)CCCC[C@H]1SC[C@H]2NC(=O)N[C@H]21 (stereo partly drawn)
EC50 (A549): > 10000 nM | EC50 (SF-295): 2700 nM

CC(C)=CCC/C(C)=C/Cc1c(O)cc(/C=C/c2cc(O)c3c(c2)C[C@@H]2C(C)(C)[C@H](O)[C@H](O)C[C@@]2(C)O3)cc1O [SCHWEINFURTHIN A]
GI50 [1]: 1000 nM
